≈ marks a conversion by molar mass, not a printed value. Calls of active or inactive are those of the source.

For two compounds, MIC results are on record in ChEMBL document CHEMBL3045104, “Synthesis and antibacterial activity of 4-benzoyl-1-(4-carboxy-phenyl)-5-phenyl-1H-pyrazole-3-carboxylic acid and derivatives” (2009).

Common to all, as to format: functional
In one assay the test system is Bacillus subtilis. Nature of the assay: Antimicrobial activity against Bacillus subtilis ATCC 6633 after overnight incubation by microdilution broth susceptibility assay.
Another assay has as its system Enterococcus faecalis. Nature of the assay: Antimicrobial activity against Enterococcus faecalis ATCC 29122 after overnight incubation by microdilution broth susceptibility assay.
The next assay deals with Streptococcus pyogenes. Nature of the assay: Antimicrobial activity against Streptococcus pyogenes ATCC 176 after overnight incubation by microdilution broth susceptibility assay. (In general: Dilution methods test growth across graded concentrations, often in twofold steps.)
Another assay relates to Xanthomonas campestris. Nature of the assay: Antimicrobial activity against Xanthomonas campestris A235 after overnight incubation by microdilution broth susceptibility assay.
Another assay has as its system Salmonella enteritidis. Put plainly: Antimicrobial activity against Salmonella enterica subsp. enterica serovar Enteritidis ATCC 1376 after overnight incubation by microdilution broth susceptibility assay.
For another assay, the system named is Staphylococcus aureus. Nature of the assay: Antimicrobial activity against Staphylococcus aureus ATCC 29213 after overnight incubation by microdilution broth susceptibility assay.
The subject of the next assay is Proteus vulgaris. Put plainly: Antimicrobial activity against Proteus vulgaris Kuk. 1329 after overnight incubation by microdilution broth susceptibility assay.
The test system of another assay is Klebsiella pneumoniae. Nature of the assay: Antimicrobial activity against Klebsiella pneumoniae A137 after overnight incubation by microdilution broth susceptibility assay.
Another assay relates to Pseudomonas aeruginosa. Put plainly: Antimicrobial activity against Pseudomonas aeruginosa ATCC 9027 after overnight incubation by microdilution broth susceptibility assay.
In another assay the test system is Escherichia coli. Nature of the assay: Antimicrobial activity against Escherichia coli B3704 after overnight incubation by microdilution broth susceptibility assay.

As a reminder, the MIC is the smallest concentration in the dilution series that meets the test's criterion for growth inhibition. Consider `O=C(Cl)c1ccc(-n2nc(C(=O)Cl)c(C(=O)c3ccccc3)c2-c2ccccc2)cc1`, for which the MIC entry in the assay with Bacillus subtilis, in the assay on Enterococcus faecalis, in the assay on Streptococcus pyogenes, in the assay on Salmonella enteritidis, in the assay on Staphylococcus aureus and in the assay with Proteus vulgaris was “inactive” throughout. Besides, in the assay with Pseudomonas aeruginosa, the MIC entry was “inactive”. Also, the minimal inhibitory concentration (MIC) was determined as 285 µM (≈ 128 µg/mL) in the assay on Xanthomonas campestris, 142 µM (≈ 63.8 µg/mL) against Klebsiella pneumoniae and 142 µM (≈ 63.8 µg/mL) in the assay with Escherichia coli.
In the case of `O=C(O)c1ccc(-n2nc(C(=O)O)c(C(=O)c3ccccc3)c2-c2ccccc2)cc1`, the minimum inhibitory concentration (MIC) against Bacillus subtilis was 310 µM (≈ 128 µg/mL); in the assay on Xanthomonas campestris, 78 µM (≈ 32.2 µg/mL); in the assay on Staphylococcus aureus, 310 µM (≈ 128 µg/mL); against Klebsiella pneumoniae it was 155 µM (≈ 63.9 µg/mL); against Escherichia coli it was 155 µM (≈ 63.9 µg/mL). The MIC result in the assay on Enterococcus faecalis, in the assay with Streptococcus pyogenes, in the assay on Salmonella enteritidis, in the assay on Proteus vulgaris and in the assay with Pseudomonas aeruginosa was “inactive” each time.
